Laboratory results: ChEMBL document CHEMBL1201862, “PubChem BioAssay data set” (2004)
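Cells were grown in 96-well plates and exposed to each compound for 48 hours at five concentrations; endpoints were interpolated linearly between bracketing concentrations, or set to the highest concentration if not reached. GI50 marks 50% less growth.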 Active and inactive are the calls of the source. No stated cut-off is given here; in the data, active = GI50 up to about 1.1 µM and inactive = higher.

Key:
Test in all cases: NCI-60 cell line screen, 48 h
MDA-MB-435 = tested on: MDA-MB-435
CAKI-1 = tested on: CAKI-1
SW-620 = tested on: SW-620
A549 = tested on: A549
OVCAR-8 = tested on: OVCAR-8
T47D = tested on: T47D
UACC-257 = tested on: UACC-257
OVCAR-3 = tested on: OVCAR-3
SR = tested on: SR
NCI-H460 = tested on: NCI-H460
CCRF-CEM = tested on: CCRF-CEM
SK-MEL-2 = tested on: SK-MEL-2
SF-295 = tested on: SF-295
Malme-3M = tested on: Malme-3M
K562 = tested on: K562
BT-549 = tested on: BT-549
ACHN = tested on: ACHN
TK-10 = tested on: TK-10
MOLT-4 = tested on: MOLT-4

Structure (SMILES)	GI50 (MDA-MB-435)	GI50 (CAKI-1)	GI50 (SW-620)	GI50 (A549)	GI50 (OVCAR-8)	GI50 (T47D)	GI50 (UACC-257)	GI50 (OVCAR-3)	GI50 (SR)	GI50 (NCI-H460)	GI50 (CCRF-CEM)	GI50 (SK-MEL-2)	GI50 (SF-295)	GI50 (Malme-3M)	GI50 (K562)	GI50 (BT-549)	GI50 (ACHN)	GI50 (TK-10)	GI50 (MOLT-4)
C=CC(=O)N1C/C(=C\c2ccc(OC)cc2)C(=O)/C(=C/c2ccc(OC)cc2)C1	2.06 µM (inactive)	3.22 µM (inactive)	1.46 µM (inactive)	2.47 µM (inactive)	2.88 µM (inactive)	6.56 µM (inactive)	3.64 µM (inactive)	1.97 µM (inactive)	0.67 µM (active)	1.9 µM (inactive)	1.78 µM (inactive)	2.68 µM (inactive)	2.39 µM (inactive)	2.19 µM (inactive)	2.86 µM (inactive)	1.71 µM (inactive)	1.78 µM (inactive)	3.66 µM (inactive)	1.76 µM (inactive)
Oc1ccnc(SCc2ccc(Cl)cc2)n1	> 100 µM (inactive)	> 100 µM (inactive)	> 100 µM (inactive)	> 100 µM (inactive)	> 100 µM (inactive)	> 100 µM (inactive)	> 100 µM (inactive)	57.3 µM (inactive)	> 100 µM (inactive)	> 100 µM (inactive)	> 100 µM (inactive)	> 100 µM (inactive)	87.1 µM (inactive)	> 100 µM (inactive)	> 100 µM (inactive)	> 100 µM (inactive)	> 100 µM (inactive)	> 100 µM (inactive)	63.7 µM (inactive)
O=C(C(Cl)Cl)N(O)c1ccccc1OCc1ccccc1	43.2 µM (inactive)	85.9 µM (inactive)	24.8 µM (inactive)	33.8 µM (inactive)	8.95 µM (inactive)	19.1 µM (inactive)	13.7 µM (inactive)	27.7 µM (inactive)	22.9 µM (inactive)	> 100 µM (inactive)	1.79 µM (inactive)	80 µM (inactive)	57.7 µM (inactive)	81.8 µM (inactive)	37.6 µM (inactive)	0.0395 µM (active)	32.8 µM (inactive)	56 µM (inactive)	41.6 µM (inactive)
O=c1cccc(Cl)[nH]1	> 100 µM (inactive)	> 100 µM (inactive)	> 100 µM (inactive)	> 100 µM (inactive)	> 100 µM (inactive)	> 100 µM (inactive)	> 100 µM (inactive)	> 100 µM (inactive)	> 100 µM (inactive)	> 100 µM (inactive)	> 100 µM (inactive)	> 100 µM (inactive)	> 100 µM (inactive)	> 100 µM (inactive)	> 100 µM (inactive)	> 100 µM (inactive)	> 100 µM (inactive)	> 100 µM (inactive)	> 100 µM (inactive)
CCN1C(=O)C(C)S/C1=N\NC(=O)CSc1nc2ccccc2c(=O)n1CC (stereo not drawn)	> 100 µM (inactive)	> 100 µM (inactive)	> 100 µM (inactive)	> 100 µM (inactive)	> 100 µM (inactive)	> 100 µM (inactive)	> 100 µM (inactive)	> 100 µM (inactive)	> 100 µM (inactive)	3.12 µM (inactive)	> 100 µM (inactive)	> 100 µM (inactive)	> 100 µM (inactive)	> 100 µM (inactive)	98.6 µM (inactive)	> 100 µM (inactive)	> 100 µM (inactive)	> 100 µM (inactive)	> 100 µM (inactive)
O=C(c1ccsc1)c1cc2c(s1)C(=O)c1ccsc1C2=O	0.0271 µM (active)	0.499 µM (active)	0.17 µM (active)	0.612 µM (active)	0.178 µM (active)	0.235 µM (active)	0.174 µM (active)	0.0624 µM (active)	1.87 µM (inactive)	0.184 µM (active)	0.155 µM (active)	0.281 µM (active)	0.174 µM (active)	0.0202 µM (active)	0.184 µM (active)	0.0807 µM (active)	0.0959 µM (active)	0.64 µM (active)	0.435 µM (active)
CCOC(=O)C1C(=O)CC1(C)C (stereo not drawn)	> 10 µM (inactive)	> 10 µM (inactive)	> 10 µM (inactive)	> 10 µM (inactive)	> 10 µM (inactive)	> 10 µM (inactive)	> 10 µM (inactive)	> 10 µM (inactive)	> 10 µM (inactive)	> 10 µM (inactive)	> 10 µM (inactive)	> 10 µM (inactive)	> 10 µM (inactive)	> 10 µM (inactive)	> 10 µM (inactive)	> 10 µM (inactive)	> 10 µM (inactive)	> 10 µM (inactive)	> 10 µM (inactive)
